The structures appear in SMILES notation.

The subject of one experiment is NCI-H1975 cells. In words: cells. As to conditions: Homo sapiens. The experiment is classed as cell-based. Here is the method:
(§1) NSCLC cells NCI-H292 (EGFR wild type (wt)), HCC827 (EGFR del E746-A750), and NCI-H1975 (EGFR L858R/T790M) were all purchased from ATCC. NCI-H292 and NCI-H1975 were cultured in RPMI1640 media with stable L-glutamine (Millipore® Sigma), 10% FBS (Millipore® Sigma) and 1 mM sodium pyruvate (Gibco®, Thermo Fisher Scientific®, or Millipore® Sigma). HCC827 cells were cultured in RPMI1640 media with stable 2 mM L-glutamine, 2.5 g/L D-(+)-glucose solution (Millipore® Sigma), 10 mM HEPES (Millipore® Sigma), 10% FBS, and 1 mM sodium pyruvate (Gibco®, Thermo Fisher Scientific®, or Millipore® Sigma).
(§2) For cytotoxicity testing, cell monolayers were washed once with Gibco® D-PBS (Thermo Fisher Scientific®) and detached from the cell culture flask using Accutase® (Millipore® Sigma). Viable cells were counted with the automated cell counter LUNA-FL™ (Logos Biosystems) using 0.4% Gibco® trypan blue solution (Thermo Fisher Scientific®). A total of 625 cells (NCI-H292), 1250 cells (NCI-H1975) or 3000 cells (HCC827) were plated in 90 μl cell culture medium per well of a 96-well black/clear flat bottom TC-treated imaging microplate (Corning®) and cultured overnight. A ten-fold starting concentration of ADCs or compounds and a respective serial dilution (1:4) were prepared in cell culture medium briefly before use. Wells were supplied with 10 μl ADC or compound solution. Treatment was performed in technical triplicates. […] Untreated control cells for ADCs or EGFR tyrosine kinase inhibitors (TKIs) received a corresponding amount of dilution media or dimethylsulfoxide (DMSO; Millipore Sigma), respectively. For subsequent cell viability measurement, 100 μl Cell Titer-Glo® reagent (Promega™ Corp, Madison, WI, USA) was pipetted in each well, and plates were further processed according the manufacturer's instructions.

The test system of the next experiment is NCI-H292 cells. In words: cells. The experiment is classed as cell-based. The following applies: Homo sapiens. Here is the method:
as §1, §2

As to `C=CC(=O)Nc1cc(Nc2nccc(-c3cn(C)c4ccccc34)n2)c(OC)cc1N(C)CCN(C)C` [Molecule 15, osimertinib], the IC50 in the experiment with NCI-H1975 cells (NCI-H1975, […], read-out: Geomean IC50) was […]; in the experiment on NCI-H292 cells (NCI-H292, […], read-out: Geomean IC50) it was 570 nM. The Emax with NCI-H1975 cells (NCI-H1975, read-out: geomean span (% efficacy)) was found to be […]; in the experiment on NCI-H292 cells (NCI-H292, read-out: geomean span (% efficacy)) it was […].

Source of the values: patent US20230310629A1, “BISPECIFIC ANTIBODY-DRUG CONJUGATES TARGETING EGFR AND MUC1 AND USES THEREOF” (Merck Patent GmbH, priority 2020, published 2023).
